{"source": "ChEMBL document CHEMBL2331215", "about": "“Discovery of novel N-substituted oxindoles as selective m1 and m4 muscarinic acetylcholine receptors partial agonists” (ACS Med Chem Lett, 2013)", "key": {"[1]": {"target": "T1, Muscarinic acetylcholine receptor M4 (Homo sapiens) (UniProt P08173)", "T1 sequence (whole entry)": "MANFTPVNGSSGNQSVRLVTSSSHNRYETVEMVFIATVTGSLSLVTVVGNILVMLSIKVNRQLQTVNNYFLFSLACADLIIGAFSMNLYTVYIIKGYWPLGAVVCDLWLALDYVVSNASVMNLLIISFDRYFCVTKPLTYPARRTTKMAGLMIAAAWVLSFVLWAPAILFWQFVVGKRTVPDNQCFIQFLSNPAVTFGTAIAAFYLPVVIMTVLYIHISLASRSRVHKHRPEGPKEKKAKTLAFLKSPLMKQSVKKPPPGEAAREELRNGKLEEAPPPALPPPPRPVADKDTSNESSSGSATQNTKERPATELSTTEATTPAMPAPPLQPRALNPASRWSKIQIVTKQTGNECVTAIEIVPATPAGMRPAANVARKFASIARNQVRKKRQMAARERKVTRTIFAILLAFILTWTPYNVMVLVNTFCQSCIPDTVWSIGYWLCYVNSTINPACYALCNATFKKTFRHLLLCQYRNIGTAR", "test": "(§1) Partial agonist activity at human M4 receptor co-expressed with Galpha16 in CHO cells assessed as calcium mobilization after 60 mins by FLIPR assay", "assay_type": "functional, cell-based"}, "[2]": {"target": "T2, Muscarinic acetylcholine receptor M4 (Homo sapiens, UniProt P08173)", "T2 sequence (P08173 whole entry)": "T1 sequence (whole entry)", "test": "as §1", "assay_type": "functional, cell-based"}, "Mus musculus [3]": {"test_system": "Mus musculus", "test": "Induction of salivation in ddY mouse at 10 to 30 mg/kg, sc measured for 30 mins after drug administration", "assay_type": "organism-based", "design": "dose 10-30 mg/kg, route subcutaneous", "conditions": "in vivo, 0.5 h"}, "Mus musculus [4]": {"test_system": "Mus musculus", "test": "Induction of seizures in ddY mouse at 100 mg/kg, sc measured for 45 mins after drug injection", "assay_type": "organism-based", "design": "dose 100 mg/kg, route subcutaneous", "conditions": "in vivo, 0.75 h"}, "Cynomolgus monkey [5]": {"test_system": "Cynomolgus monkey", "test": "Induction of vomiting in sc dosed cynomolgus monkey", "assay_type": "organism-based, Macaca fascicularis", "conditions": "in vivo"}, "[6]": {"target": "T3, Muscarinic acetylcholine receptor M1 (Homo sapiens) (UniProt P11229)", "T3 sequence (whole entry)": "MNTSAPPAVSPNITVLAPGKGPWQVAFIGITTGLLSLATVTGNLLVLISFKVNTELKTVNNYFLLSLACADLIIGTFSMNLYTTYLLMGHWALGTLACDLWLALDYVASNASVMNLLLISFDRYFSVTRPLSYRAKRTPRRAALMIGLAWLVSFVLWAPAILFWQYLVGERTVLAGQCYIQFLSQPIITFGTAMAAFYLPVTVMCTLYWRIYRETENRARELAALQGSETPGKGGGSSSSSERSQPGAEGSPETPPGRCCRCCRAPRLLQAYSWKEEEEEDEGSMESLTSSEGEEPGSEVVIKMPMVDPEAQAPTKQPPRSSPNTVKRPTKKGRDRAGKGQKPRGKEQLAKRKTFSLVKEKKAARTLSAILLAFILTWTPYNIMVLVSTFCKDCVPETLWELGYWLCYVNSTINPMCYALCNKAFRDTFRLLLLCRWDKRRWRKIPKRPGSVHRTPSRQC", "test": "Partial agonist activity at human M1 receptor in CHO cells assessed as calcium mobilization at 3 uM after 60 mins by FLIPR assay", "assay_type": "functional, cell-based"}, "Rattus norvegicus [7]": {"test_system": "Rattus norvegicus", "test": "Antipsychotic activity in Sprague-Dawley rats assessed as reversal of methamphetamine-induced hyperlocomotion at 1 to 10 mg/kg, sc administered 30 mins prior to methamphetamine injection measured for 80 mins from 10 mins after methamphetamine challenge", "assay_type": "functional, organism-based"}, "[8]": {"target": "Muscarinic acetylcholine receptor M3 (Homo sapiens) (UniProt P20309)", "sequence (P20309 whole entry, looked up)": "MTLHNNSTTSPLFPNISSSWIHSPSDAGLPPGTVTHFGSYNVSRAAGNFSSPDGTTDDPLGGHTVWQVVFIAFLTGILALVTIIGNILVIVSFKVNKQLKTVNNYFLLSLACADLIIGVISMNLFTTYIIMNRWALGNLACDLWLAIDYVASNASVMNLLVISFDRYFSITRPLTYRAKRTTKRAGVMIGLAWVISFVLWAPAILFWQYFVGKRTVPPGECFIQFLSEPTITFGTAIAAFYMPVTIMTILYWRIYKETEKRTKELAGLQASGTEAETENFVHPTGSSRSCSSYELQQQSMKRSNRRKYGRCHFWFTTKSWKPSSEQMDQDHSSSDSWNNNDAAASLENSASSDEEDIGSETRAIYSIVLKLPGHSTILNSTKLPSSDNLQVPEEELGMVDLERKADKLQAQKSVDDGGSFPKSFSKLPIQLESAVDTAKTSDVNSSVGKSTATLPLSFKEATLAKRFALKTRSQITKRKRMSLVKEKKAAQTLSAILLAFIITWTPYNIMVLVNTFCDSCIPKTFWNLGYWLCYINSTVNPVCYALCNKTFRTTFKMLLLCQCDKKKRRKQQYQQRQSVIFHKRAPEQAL", "test": "Partial agonist activity at human M3 receptor in CHO cells assessed as calcium mobilization at 30 uM after 60 mins by FLIPR assay", "assay_type": "functional, cell-based"}, "Rattus norvegicus [9]": {"test_system": "Rattus norvegicus", "test": "Potentiation of risperidone-induced catalepsy in Sprague-Dawley rats at 10 mg/kg, sc administered 15 mins after risperidone injection measured after 45 mins", "assay_type": "ADME, organism-based", "design": "dose 10 mg/kg, route subcutaneous", "conditions": "in vivo, 0.75 h"}, "Cynomolgus monkey [10]": {"test_system": "Cynomolgus monkey", "test": "Cardiotoxicity in telemetered cynomolgus monkey assessed as increase in heart rate at 1.5 to 6 mg/kg, sc measured after 1 to 4 hrs by telemetry method", "assay_type": "toxicity, organism-based, Macaca fascicularis", "design": "route subcutaneous", "conditions": "in vivo"}, "Cynomolgus monkey [11]": {"test_system": "Cynomolgus monkey", "test": "Induction of drowsiness in sc dosed cynomolgus monkey", "assay_type": "organism-based, Macaca fascicularis", "conditions": "in vivo"}, "Cynomolgus monkey [12]": {"test_system": "Cynomolgus monkey", "test": "Cardiotoxicity in telemetered cynomolgus monkey assessed as increase in mean blood pressure at 1.5 to 6 mg/kg, sc measured after 1 to 4 hrs by telemetry method", "assay_type": "toxicity, organism-based, Macaca fascicularis", "design": "route subcutaneous", "conditions": "in vivo"}, "Cynomolgus monkey [13]": {"test_system": "Cynomolgus monkey", "test": "Cardiotoxicity in telemetered cynomolgus monkey assessed as prolongation of QTc interval at 1.5 to 6 mg/kg, sc measured after 1 to 4 hrs by telemetry method", "assay_type": "toxicity, organism-based, Macaca fascicularis", "design": "route subcutaneous", "conditions": "in vivo"}, "Rattus norvegicus [14]": {"test_system": "Rattus norvegicus", "test": "Induction of catalepsy in Sprague-Dawley rats at 10 to 30 mg/kg, sc measured after 60 mins", "assay_type": "organism-based", "design": "dose 10-30 mg/kg, route subcutaneous", "conditions": "in vivo, 1 h"}, "[15]": {"target": "T3, Muscarinic acetylcholine receptor M1 (Homo sapiens)", "test": "(§2) Partial agonist activity at human M1 receptor in CHO cells assessed as calcium mobilization after 60 mins by FLIPR assay", "assay_type": "functional, cell-based"}, "[16]": {"target": "T4, Muscarinic acetylcholine receptor M1 (Homo sapiens, UniProt P11229)", "T4 sequence (P11229 whole entry)": "T3 sequence (whole entry)", "test": "as §2", "assay_type": "functional, cell-based"}, "Mus musculus [17]": {"test_system": "Mus musculus", "test": "Antipsychotic activity in ddY mouse assessed as reversal of apomorphine-induced climbing behaviour at 0.3 to 3 mg/kg, sc administered 20 mins prior to apomorphine injection measured for 20 mins from 10 mins after apomorphine challenge", "assay_type": "functional, organism-based"}, "[18]": {"target": "T5, Muscarinic acetylcholine receptor M2 (Homo sapiens) (UniProt P08172)", "T5 sequence (whole entry)": "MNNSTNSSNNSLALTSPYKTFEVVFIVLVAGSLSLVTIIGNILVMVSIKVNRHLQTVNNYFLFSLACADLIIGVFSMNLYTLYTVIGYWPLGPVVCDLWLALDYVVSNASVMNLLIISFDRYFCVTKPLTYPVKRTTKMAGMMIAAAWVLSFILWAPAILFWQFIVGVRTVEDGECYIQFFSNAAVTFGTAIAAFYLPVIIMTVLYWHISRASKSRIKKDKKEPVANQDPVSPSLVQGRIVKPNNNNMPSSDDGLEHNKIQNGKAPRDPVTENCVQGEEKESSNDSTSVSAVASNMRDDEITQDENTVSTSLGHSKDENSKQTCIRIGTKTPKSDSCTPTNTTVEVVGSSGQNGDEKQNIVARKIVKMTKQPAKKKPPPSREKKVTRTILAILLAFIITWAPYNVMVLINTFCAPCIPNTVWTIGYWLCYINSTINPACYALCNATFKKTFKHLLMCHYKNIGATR", "test": "Partial agonist activity at human M2 receptor co-expressed with Galpha16 in CHO cells assessed as calcium mobilization at 30 uM after 60 mins by FLIPR assay", "assay_type": "functional, cell-based"}, "Cynomolgus monkey [19]": {"test_system": "Cynomolgus monkey", "test": "Cardiotoxicity in telemetered cynomolgus monkey assessed as prolongation of QRS duration at 1.5 to 6 mg/kg, sc measured after 1 to 4 hrs by telemetry method", "assay_type": "toxicity, organism-based, Macaca fascicularis", "design": "route subcutaneous", "conditions": "in vivo"}, "Rattus norvegicus [20]": {"test_system": "Rattus norvegicus", "test": "Antipsychotic activity in Sprague-Dawley rats assessed as reversal of methamphetamine-induced hyperlocomotion at 0.6 mg/kg, sc administered 30 mins prior to methamphetamine injection measured for 80 mins from 10 mins after methamphetamine challenge in presence of 0.6 mg/kg, po risperidone", "assay_type": "functional, organism-based"}, "[21]": {"target": "T5, Muscarinic acetylcholine receptor M2 (Homo sapiens)", "test": "Partial agonist activity at human M2 receptor co-expressed with Galpha16 in CHO cells assessed as calcium mobilization at 3 uM after 60 mins by FLIPR assay", "assay_type": "functional, cell-based"}, "Cynomolgus monkey [22]": {"test_system": "Cynomolgus monkey", "test": "Induction of miosis in sc dosed cynomolgus monkey", "assay_type": "organism-based, Macaca fascicularis", "conditions": "in vivo"}, "[23]": {"target": "Voltage-gated inwardly rectifying potassium channel KCNH2 (Homo sapiens, UniProt Q12809)", "sequence (Q12809 whole entry)": "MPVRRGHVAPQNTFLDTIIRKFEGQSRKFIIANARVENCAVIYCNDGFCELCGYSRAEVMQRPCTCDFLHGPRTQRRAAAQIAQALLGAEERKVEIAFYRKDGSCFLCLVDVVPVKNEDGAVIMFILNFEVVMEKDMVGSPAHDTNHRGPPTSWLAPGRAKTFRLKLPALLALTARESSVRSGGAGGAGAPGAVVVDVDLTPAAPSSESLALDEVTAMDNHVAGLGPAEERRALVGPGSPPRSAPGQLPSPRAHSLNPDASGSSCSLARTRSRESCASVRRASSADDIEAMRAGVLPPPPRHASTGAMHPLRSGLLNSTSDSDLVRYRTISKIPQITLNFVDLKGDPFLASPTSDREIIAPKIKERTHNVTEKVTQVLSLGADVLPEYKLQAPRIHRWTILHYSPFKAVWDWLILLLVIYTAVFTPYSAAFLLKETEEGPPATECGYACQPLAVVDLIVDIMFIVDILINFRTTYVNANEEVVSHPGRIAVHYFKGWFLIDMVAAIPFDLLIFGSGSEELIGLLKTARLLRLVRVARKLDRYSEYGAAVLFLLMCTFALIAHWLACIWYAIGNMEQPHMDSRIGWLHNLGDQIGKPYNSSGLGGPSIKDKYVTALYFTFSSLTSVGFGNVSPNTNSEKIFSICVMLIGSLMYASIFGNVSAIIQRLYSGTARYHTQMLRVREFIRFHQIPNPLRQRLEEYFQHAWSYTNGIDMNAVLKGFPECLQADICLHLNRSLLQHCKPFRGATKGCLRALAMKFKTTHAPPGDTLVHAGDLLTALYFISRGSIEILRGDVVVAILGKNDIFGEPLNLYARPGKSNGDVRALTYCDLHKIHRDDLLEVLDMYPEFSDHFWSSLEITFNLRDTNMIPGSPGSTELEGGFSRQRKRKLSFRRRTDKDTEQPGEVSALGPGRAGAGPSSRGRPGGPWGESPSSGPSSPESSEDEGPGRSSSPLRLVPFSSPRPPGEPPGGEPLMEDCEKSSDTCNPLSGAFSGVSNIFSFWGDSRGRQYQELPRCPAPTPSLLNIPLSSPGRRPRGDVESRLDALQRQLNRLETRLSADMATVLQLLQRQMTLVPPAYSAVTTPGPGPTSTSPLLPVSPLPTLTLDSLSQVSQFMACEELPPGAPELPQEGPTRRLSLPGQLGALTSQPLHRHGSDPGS", "test": "Inhibition of human ERG assessed as decrease in tail current amplitude measured after 5 mins by whole cell patch clamp technique"}}, "note": "Active and inactive are the calls of the source. No cut-off for these calls is given here.", "data": [{"smiles": "CCOC(=O)N1[C@@H]2CC[C@H]1C[C@H](CN1CC[C@H](N3C(=O)Cc4ccccc43)C1)C2", "values": [{"measurement": "Intrinsic activity", "setting": "[1]", "result": 42, "unit": "%"}, {"measurement": "EC50", "setting": "[2]", "result": 29, "unit": "nM"}, {"measurement": "Activity", "setting": "Mus musculus [3]", "result": "Non-toxic"}, {"measurement": "Activity", "setting": "Mus musculus [4]", "result": "Non-toxic"}, {"measurement": "Activity", "setting": "Cynomolgus monkey [5]", "result": "Non-toxic"}, {"measurement": "Activity", "setting": "[6]", "result": 63, "unit": "%"}, {"measurement": "inhibition", "setting": "Rattus norvegicus [7]", "result": "Active"}, {"measurement": "Activity", "setting": "[8]", "result": "inactive"}, {"measurement": "Activity", "setting": "Rattus norvegicus [9]", "result": "Non-toxic"}, {"measurement": "Activity", "setting": "Cynomolgus monkey [10]", "result": "Toxic"}, {"measurement": "Activity", "setting": "Cynomolgus monkey [11]", "result": "Non-toxic"}, {"measurement": "Activity", "setting": "Cynomolgus monkey [12]", "result": "Non-toxic"}, {"measurement": "Activity", "setting": "Cynomolgus monkey [13]", "result": "Non-toxic"}, {"measurement": "Activity", "setting": "Rattus norvegicus [14]", "result": "Non-toxic"}, {"measurement": "Intrinsic activity", "setting": "[15]", "result": 60, "unit": "%"}, {"measurement": "EC50", "setting": "[16]", "result": 12, "unit": "nM"}, {"measurement": "inhibition", "setting": "Mus musculus [17]", "result": "Active"}, {"measurement": "Activity", "setting": "[18]", "result": "inactive"}, {"measurement": "Activity", "setting": "Cynomolgus monkey [19]", "result": "Non-toxic"}, {"measurement": "inhibition", "setting": "Rattus norvegicus [20]", "result": "Active"}, {"measurement": "Activity", "setting": "[21]", "result": 25, "unit": "%"}, {"measurement": "Activity", "setting": "Cynomolgus monkey [22]", "result": "Toxic"}, {"measurement": "IC50", "setting": "[23]", "result": 2400, "unit": "nM"}]}]}
